Reference: patent US20240141356A1, “Driving Axon Regeneration by Activating STAT1 Signaling and cGAS-STING Pathway” (The Hong Kong University of Science and Technology, priority 2022, published 2024)

Tests used:
[1] = system: DRG neurons; test: Adult DRG neuron primary culture, length of the longest axon (compound test); format: cell-based, mouse; details: cGAMP 10 μM; for axon elongation / axon growth in DRG culture: WT DRG neurons, DMXAA 10 μM, C-176 1 μM, H-151 1 μM; for effect on the growth effect induced by cGAMP: DRG culture, DCPIB 100 nM, CBX 10 μM
Procedure: (§1) In some embodiments, in-vitro screening models of axon regeneration are based on DRG electroporation and replating culture. Adult DRGs were cultured and replated according to the protocol described previously (Weng et al., 2018). In certain embodiments, adult mice were euthanized, and L4-L6 DRGs were dissected from both sides. DRGs were dissociated in 0.5% collagenase for 1.5 hours. Then the medium containing collagenase was replaced by Neurobasal A, and DRGs were gently pipetted 20 times for dissociation. For electroporation, dissociated DRG neurons were transfected by Mouse Neuron Nucleofector Kit in Lonza Nucleofector system using program G103. 6 DRGs and 5 μg plasmid were used for each reaction. Neurobasal-A with 10% B27 supplement was used as the culture medium for DRG neurons.
(§2) For quantification of neurite lengths in DRG culture. Cells were fixed and stained with TurboGFP (phosphatase shRNA library screening) or Tuj 1. The lengths of the longest axons in each DRG neuron were quantified by the NeuronJ plugin in ImageJ. For phosphatase screening, 5-10 neurons were quantified for each shRNA. For the compound test, 10-20 cells from each mouse and 3 mice were quantified in each group.

[2] = system: retinal ganglion cells (RGCs); test: Optic nerve crush, number of regenerating axons (CTB labeling); format: in vivo, mouse
[3] = system: IFNγ; test: Ex-vivo model of sciatic nerve injury, IFNγ immunostaining; design: species or system mouse; details: injured sciatic nerve segments in DMEM, anisomycin 200 μg/ml, 3-hour incubation
Procedure: For the ex-vivo model of sciatic nerve injury, the nerves were crushed and then cut into about 3 mm to about 5 mm segments. The injured nerve segments were incubated in DMEM supplemented with about 10% FBS and about 1% penicillin/streptomycin. Translation was inhibited by 200 μg/ml anisomycin. After about a 3-hour incubation, nerve segments were fixed by 4% PFA for about 2 hours and then proceeded to the frozen section.
Mice were first perfused by PBS and then 4% PFA for 5 minutes for fixation. Respective tissues were dissected and then post-fixed in 4% PFA for two hours. Fixed tissues were incubated in 30% sucrose overnight and then embedded in an optimum cutting temperature (OCT) compound. Frozen sections were then permeabilized with 0.1% Triton X-100, blocked by 4% normal goat serum for 30 min, and incubated by respective primary antibodies overnight. After PBS washing three times, sections were incubated by secondary antibodies for two hours and washed three times again. Images were taken by Leica SP8 confocal microscope.

[4] = system: cGAS; test: cGAS expression in retina/RGCs after optic nerve injury (western blot, immunostaining); format: in vivo, mouse
[5] = system: p-STAT1; test: p-STAT1 in RGCs/retina after optic nerve injury (immunostaining, western blot); format: in vivo, mouse; details: for p-STAT1 accumulation in the nuclei of RGCs: WT, IFNγ administration
[6] = system: p-STAT3; test: p-STAT3 in RGCs after optic nerve injury (immunostaining); format: in vivo, mouse; details: Ptpn2 KO group with IFNγ, 1 dpc
[7] = system: retinal ganglion cells (RGCs); details: 2 WPI
[8] = system: embryonic DRG neurons; test: Embryonic DRG culture in compartmented chamber, in-vitro axotomy; format: cell-based, mouse; details: ADU-S100 10 μM added to the axonal or the soma compartment
Procedure: To culture embryonic DRG in the compartmented chamber, embryonic DRGs were dissected from E13.5 pregnant C57BL/6 mouse embryos in Leibovitz's L-15 medium on ice. Tissues were dissociated in TrypLE for 15 minutes at 37° C. Dissociated neurons were plated in the microfluidic chamber on cleaned glass coverslips pre-coated with poly-D-lysine and laminin in the density of 100000 cells per chamber with 5 μL culture medium supplemented with GlutaMAX (2 mM), B27 (20 ml/l), penicillin-Streptomycin, NGF ([…]) and 5-fluoro-2′-deoxyuridine (10 μM) into the somal compartment. After one hour, 200 μL medium was added into both the somal and axonal compartment. To perform in-vitro axotomy, axons in the axonal chamber were removed by a glass pipette connected to an aspirator. Then, a 150 μL medium was quickly added into the empty compartment. After 2 days in the […], cells were fixed by 4% PFA and then stained by Tuj 1 antibody. The lengths and/or number of longest axons in each chamber were quantified by ImageJ.

[9] = system: adult DRG neurons; test: DRG replating assay, phosphatase inhibitor screening; format: cell-based, mouse; details: replated adult DRG neurons, inhibitors 100 nM
Procedure: as §1
The culture was replated three days after electroporation. The DRG neurons in the primary culture were gently flushed by 20-30 pipetting to be resuspended in the culture medium. […] The lengths of the longest axons in each DRG neuron were quantified by the NeuronJ plugin in ImageJ. […]
as §2, with “Cells were fixed and stained with TurboGFP (phosphatase shRNA library screening) or Tuj 1.” left out

[10] = Ptpn2 cKO plus IFNγ after optic nerve injury

## Nc1nc2c(ncn2[C@@H]2O[C@@H]3COP(=O)(O)O[C@H]4[C@@H](O)[C@H](n5cnc6c(N)ncnc65)O[C@@H]4COP(=O)(O)O[C@@H]2[C@@H]3O)c(=O)[nH]1 [2′,3′-cGAMP, reference compound]
[1]; Sting deletion (Sting KO mice)
  growth effect of cGAMP on DRG culture: completely abolished
[1]
  axon elongation / axon growth in DRG culture: enhanced the axon elongation
[2]; mouse, in vivo
  axon regeneration after optic nerve crush: stimulated significant axon regeneration
  cGAMP-induced regeneration: suppressed
  cGAMP-stimulated axon regeneration: almost completely blocked

## COc1ccc(C[C@H]2NC[C@H](O)[C@H]2OC(C)=O)cc1 [anisomycin]
[3]
  reduction of the IFNγ signal: over 50%

## IFNγ: type II interferon, recombinant protein (Prospec)
[4]; Ptpn2 cKO in addition to IFNγ, 2 days after injury
  cGAS in RGCs by immunostaining: upregulated
[4]; [10]
  cGAS in retina by western blotting: detectable only in mouse retinas with Ptpn2 cKO plus IFNγ
[5]; Ptpn2 KO group with IFNγ
  p-STAT1 in RGCs: enhanced up to 5 dpc
[5]; [10]
  p-STAT1 in retina lysates by western blotting: most elevated among all groups
[5]; 1 dpc
  p-STAT1 accumulation in the nuclei of RGCs: induced p-STAT1 accumulation
[5]; 3 dpc
  p-STAT1 accumulation in the nuclei of RGCs: not at 3 dpc
[6]
  phosphorylated STAT3 (p-STAT3) in RGCs: also activated
[2]; Cgas or Sting KO mice with AAV-shRNA-Ptpn2, 0.1 μg/μL IFNγ, 2 weeks after injury
  optic nerve regeneration by IFNγ stimulation: almost completely blocked
[2]; Pten/Socs3/Ptpn2 triple KO with AAV-CNTF, IFNγ at time of injury, four weeks
  axons found at the optic chiasm, vs Pten/Socs3 mutant plus vehicle: about 3 fold
[2]; Ptpn2 KO mice, protein injected into the eye at time of optic nerve crush, two weeks, IFNγ 0.1 μg/μL, leptin 2, insulin 2, EGF 1, bNGF 1 μg/μL
  axon regeneration, exogenous ligand screen: significantly boosted axon regeneration
[2]; Ptpn2 cKO mice, intravitreal IFNγ immediately after optic nerve injury (repeat with more controls)
  axon regeneration, IFNγ plus Ptpn2 KO: elicited robust regeneration
[2]; WT mice, intravitreal IFNγ immediately after optic nerve injury
  axon regrowth, IFNγ alone: induced modest regrowth
[2]; mouse, in vivo
  axon regeneration, triple KO plus IFNγ vs Pten/Socs3 mutant plus vehicle: very significant increase in axon regeneration
[7]; WT or Ptpn2 cKO with PBS or IFNγ
  RGC survival rates: comparable among the four groups
[7]; WT, Cgas, Sting or Mavs KO mice with AAV-shRNA-Ptpn2 and IFNγ
  RGC survival: comparable among all groups

## Nc1ncnc2c1ncn2[C@@H]1O[C@@H]2COP(=O)([S-])O[C@@H]3[C@H](O)[C@@H](COP([O-])(=S)O[C@H]2[C@H]1O)O[C@H]3n1cnc2c(N)ncnc21.[Na+].[Na+] (stereo partly shown) [ADU-S100, reference compound]
[2]; mouse, in vivo
  axon regeneration after optic nerve crush: regenerative effect in a dose-dependent manner
[8]
  axon elongation after in-vitro axotomy: enhanced axon elongation

## CCc1ccc(C(=O)NCCCCC(NC(=O)C(Cc2ccc(C(F)(F)P(=O)(O)O)cc2)NC(=O)C(Cc2ccccc2)NC(=O)COC2CC(C)CCC2C(C)C)C(N)=O)cc1 (stereo not shown) [PTPN2 inhibitor, reference compound]
[9]
  in-vitro screening on inhibitors of mouse phosphatases (axon elongation): identified from the tyrosine phosphatase inhibitor screening
[2]; mouse, in vivo
  axon regeneration after optic nerve crush: elicited modest axon regeneration

## Cc1ccc2c(=O)c3cccc(CC(=O)O)c3oc2c1C [DMXAA, 5,6-Dimethylxanthenone-4-acetic acid]
[1]
  axon elongation / axon growth in DRG culture: enhanced the axon elongation

## CCCCC1(C2CCCC2)Cc2cc(OCCCC(=O)O)c(Cl)c(Cl)c2C1=O (stereo not shown) [DCPIB]
[1]
  effect on the growth effect induced by cGAMP: inhibit the growth effect induced by cGAMP

## CC1(C)[C@@H](OC(=O)CCC(=O)O)CC[C@]2(C)[C@H]3C(=O)C=C4[C@@H]5C[C@@](C)(C(=O)O)CC[C@]5(C)CC[C@@]4(C)[C@]3(C)CC[C@@H]12 [CBX]
[1]
  effect on the growth effect induced by cGAMP: inhibit the growth effect induced by cGAMP
